Columns and labels:
Assay type in all cases: cell-based
[1] = system: ATM mutant cell lines (HCC1500, LNCap, HT-144, HepG2); experiment: Proliferation assays on cancer cell lines (CellTiter-Glo), ATM mutant cell lines; conditions: four ATMmut cell lines: HCC1500 breast, LNCap prostate, HT-144 melanoma, HepG2 liver (FIG. 2C)
Protocol: Cancer cells were cultured in appropriate medium. […] Each cell line was tested in triplicates.

[2] = system: ATM mutant cell lines LNCap and HepG2; experiment: Apoptosis assays (Annexin V-FITC/PI flow cytometry); conditions: LNCap prostate and HepG2 liver (FIG. 2D)
Protocol: After 72-hour incubation of the cells with compound, cells were trypsinised, washed with PBS and immediately used for flow cytometry analysis.
The samples were stained with eBioscience™ Annexin V-FITC Apoptosis Detection Kit (#BMS500FI-100, Thermo Fisher Scientific, Waltham, MA, USA) according to manufacturer's recommendations. Briefly, the samples were washed in PBS and resuspended in 200 μl of 1× binding buffer containing 5 μl of Annexin V-FITC for 10 min at room temperature. Following the incubation, samples were washed with 1× binding buffer and resuspended in 200 μl 1× binding buffer and 10 μl of the 20 μg/ml PI.
The stained samples were then immediately analysed by flow cytometry on Guava easyCyte HT cytometer (Merck-Millipore). The cell populations were separated into three groups: live cells showing only a low level of fluorescence (Annexin V-/PI-), apoptotic cells showing green fluorescence (Annexin V+/PI−) and dead cells showing both red and green fluorescence (Annexin V+/PI+). Data analyses were performed using Microsoft excel and results plotted on Prism version 7 (GraphPad Software, California, USA).

[3] = system: MSI-H colorectal cancer PDOs; experiment: Proliferation assays on patient-derived organoids (PDOs), MSI-H colorectal cancer; conditions: 6 MSI-H colorectal cancer PDOs (FIG. 4C)
Protocol: Organoids were retrieved from the CrownBIO organoid bank and expanded before getting enough quantity according to standard operation procedure. One day before organoids seeding, the needed number of organoids were passaged 1:1 using 50% Matrigel and 50% corresponding culture medium. On Day 0 organoids were seeded and compound added: organoids were collected by adding 20 μl 100× Dispase solution to each well from a 6-well plate, and incubating at 37C for 30 min. After incubation, organoids were collected from all wells and pipetted through a pre-wet 100 μm filter into a 50 ml plastic tube, then filtered the flow through over a pre-wet 20 μm filter, inverted the 20 μm filter and recovered the organoids in a new 50 ml tube, Collect organoids were then resuspended in the corresponding culture media, and counted. Organoids cell suspensions were added to 384-well plate by Multidrop dispenser. 2-4 hours after organoids seeding, compounds were added by Tecan D300e, then plates were placed back into incubator for 5 days' incubation. On day 5, proliferation was assayed by CellTiter-Glo assay. […] The plate was then read (for luminescence) in an Envision plate reader.

[4] = system: CAL-51; experiment: CellTiter-Glo cell viability, combination matrix with PARP inhibitors (HSA synergy), CAL-51; conditions: CAL-51, TP53 WT, BRCA2 Mutant, 72 h
Protocol: The cell line will be treated with test articles alone, matrix combinations with test articles and culture medium as vehicle control.
• 1. Harvest cells during the logarithmic growth period and count cell number. • 2. Adjust cell concentrations to 4.0×10^4cells/mL with respective culture medium. • 3. Add 100 μL cell suspensions to three 96-well plates (plates A, B and C) with the final cell density of 4×10^3 cells/well. 4a. Next Day: For the Plates of TO Reading: • 1) Equilibrate the plate A and its content at RT for approximately 30 min. • 2) Add 50 μL CellTiter-Glo reagent to each well. • 3) Mix content for 5 min on an orbital shaker to induce cell lysis. • 4) Allow the plate to incubate at RT for 20 min to stabilize luminescent signal. • 5) Record luminescence (TO) using EnVision Multi Label Reader. 4b. For the Plates of Test Reading: • 1) Prepare 500× solution of test articles (Top working concentration: 10 μM/100 μM of test articles in media with 3-fold serial dilutions to achieve 9 dose levels. • 2) Prepare 10× reference control solutions (Top working concentration: 100 μM in media with 3.16-fold serial dilutions. • 3) Dispense 500× drug solutions in each well (triplicate for each drug concentration) of the plate B using digital dispenser. […] Record luminescence (T3) using EnVision Multi Label Reader. […]

Compound: CC[C@@](O)(c1cc(F)c2c(c1)C(=O)N([C@H](c1ccc(Cl)cc1)[C@H](C)C(=O)O)[C@@]2(OC)c1ccc(Cl)cc1)C1CCOCC1 [Example 124, (2S,3S)-3-(4-chlorophenyl)-3-[(1R)-1-(4-chlorophenyl)-7-fluoro-5-[(1S)-1-hydroxy-1-(oxan-4-yl)propyl]-1-methoxy-3-oxo-2,3-dihydro-1H-isoindol-2-yl]-2-methylpropanoic acid]
- sensitivity as measured by reduction in cell proliferation [1]: showed sensitivity
- sensitivity as measured by increased apoptosis [2]: showed sensitivity
- sensitivity as measured by reduction in cell proliferation [3]: showed sensitivity
- HSA_Average <−5 Antagonism >+5 Synergy ([4]; Compound 1 in combination with Olaparib): 8.0
- HSA_Average <−5 Antagonism >+5 Synergy ([4]; Compound 1 in combination with Talazoparib): 15.7

Reference: patent US20240293364A1, “BIOMARKERS FOR CANCER THERAPY USING MDM2 ANTAGONISTS” (OTSUKA PHARMACEUTICAL CO., LTD., priority 2021, published 2024)
